Like-named read-outs stand apart in the source and are kept apart here.
Target: T1, human GPR120 (Homo sapiens, UniProt Q5NUL3)
T1 construct: host or cells: HEK293 cells coexpressing Gqi5
T1 sequence (Q5NUL3 1-361): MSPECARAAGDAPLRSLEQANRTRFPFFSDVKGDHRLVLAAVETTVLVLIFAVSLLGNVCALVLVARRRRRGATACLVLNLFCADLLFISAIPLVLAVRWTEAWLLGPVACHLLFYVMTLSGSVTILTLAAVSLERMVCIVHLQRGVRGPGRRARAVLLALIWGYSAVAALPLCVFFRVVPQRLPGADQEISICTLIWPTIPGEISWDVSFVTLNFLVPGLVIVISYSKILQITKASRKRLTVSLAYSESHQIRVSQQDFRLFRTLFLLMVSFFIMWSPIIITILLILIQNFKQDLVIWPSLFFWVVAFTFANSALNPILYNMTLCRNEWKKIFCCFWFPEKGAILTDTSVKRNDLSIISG
Experiment: Intracellular Ca2+ (FLIPR Calcium 4, Flexstation) assay in human GPR120 stable HEK293 cell line coexpressing Gqi5
Format: cell-based
Conditions: for % Activity at 5 μM: 5 μM compound compared to the maximal activity of GW9508 at 6.7 μM (100%); for EC50: human GPR120 stably expressing cells, 8 concentrations 0.00001 to 20 μM
Procedure: Human GPR120 stable cell line was purchased from Multispan Inc (26219 Eden Landing Road, Hayward, Calif. 94545). This GPR120 cell line was generated in HEK293 cells coexpressing Gqi5. In this cell line, the Flag epitope tag (DYKDDDDK) was fused to the amino terminus of human GPR120 protein.
The concentration of intracellular Ca^2+ was measured as described below. Human GPR120 cells were plated in 96 well plates (Poly-D-Lysine coated black/clear Plate, Greiner Bio-One) at 70,000 cells per well and cultured overnight in conditions of 37° C. and 5% CO2. A Ca^2+ assay dye stock solution was prepared by adding 10 mL of assay buffer (HBSS/20 mM HEPES, pH 7.4) to FLIPR Calcium 4 Assay Bulk Kit (Molecular Devices). The 10 mL of Ca^2+ assay dye solution was prepared by further diluting 0.5 mL of Ca^2+ assay dye stock solution with 10 mL of assay buffer. The medium of the cells was removed and immediately 100 μl of the Ca^2+ assay dye solution was dispensed into each well followed by incubation at 37° C. and 5% CO2 for 50 minutes to incorporate the Ca^2+ dye into the cells. The cell plate was then placed in the Flexstation (Molecular Devices) for 20 minutes at 37° C. Compounds were dissolved in 100% DMSO and diluted to desired concentrations with assay buffer and placed in Flexstation simultaneously with the cell plate for 20 minute incubation at 37° C. prior to reading. Fluorescence intensity was measured immediately following compound addition (25 μl/well) on the Flexstation at an excitation wavelength of 485 nm and an emission wavelength of 525 with 515 nm auto cutoff. The resulting increase in fluorescence intensities corresponds to increases in intracellular Ca^2+ levels.
Compounds were dissolved in 100% DMSO to a concentration of 20 mM to provide stock solutions. To determine activity against human GPR120, compounds were added with human GPR120 stably expressing cells (described above), at 8 desired concentrations ranging from 0.00001 to 20 μM, in 96 well plates and fluorescence intensities were measured for 90 seconds with 2-second intervals. An EC50 value (concentration of the GPR120 agonist where 50% of the agonist's maximal activity is observed) was calculated using the changes (Max-Min) of fluorescent intensity.
To determine percent activity for a tested compound, the fluorescence intensity value obtained at a particular concentration were compared to the maximal fluorescence intensity value obtained for reference compound GW9508 (4-[[(3-phenoxyphenyl)methyl]amino]benzene propanoic acid; British Journal of Pharmacology 2006 148, 619-628) that acts as a full agonist of the GPR120 receptor. The maximal activity of GW9508 is designated as 100% activity. Typically, the GW9508 activity reached a maximum at a concentration of approximately 6.7 μM. Activities of compounds that were tested according to this method are shown in Table 1 below and are expressed as % activity at 5 μM compound compared to the maximal activity of GW9508 at 6.7 μM.

| Structure (SMILES) | % Activity at 5 μM | EC50 (read-out: EC50 ≦ 1 μM) | EC50 (read-out: EC50 between >1 μM and ≦10 μM) |
| --- | --- | --- | --- |
| Cc1cc(COc2c(F)cc(CC(C)(C)C(=O)O)cc2F)n(-c2ccc(Cl)cc2)n1 [Example 38, 3-(4-((1-(4-chlorophenyl)-3-methyl-1H-pyrazol-5-yl)methoxy)-3,5-difluorophenyl)-2,2-dimethylpropanoic acid] | 100% |  | 1000 to 10000 nM |
| Cc1cc(COc2c(F)cc(CCC(=O)O)cc2F)n(-c2ccc(F)c(F)c2)n1 [Example 53, 3-(4-((1-(3,4-difluorophenyl)-3-methyl-1H-pyrazol-5-yl)methoxy)-3,5-difluorophenyl)propanoic acid] | 84% | ≤ 1000 nM |  |
| Cc1cc(COc2c(F)cc(CC(F)C(=O)O)cc2F)n(-c2ccc(Cl)cc2)n1 (centres unmarked) [Example 54, 3-(4-((1-(4-chlorophenyl)-3-methyl-1H-pyrazol-5-yl)methoxy)-3,5-difluorophenyl)-2-fluoropropanoic acid] | 48% | ≤ 1000 nM |  |
| Cc1cc(COc2c(F)cc(CC3CC3C(=O)O)cc2F)n(-c2ccc(Cl)cc2)n1 (centres unmarked) [Example 55, 2-(4-((1-(4-chlorophenyl)-3-methyl-1H-pyrazol-5-yl)methoxy)-3,5-difluorobenzyl)cyclopropanecarboxylic acid] | 66% | ≤ 1000 nM |  |
| O=C(O)CCc1cc(F)c(OCc2cc(C(F)(F)F)nn2-c2ccc(Cl)cc2)c(F)c1 [Example 56, 3-(4-((1-(4-chlorophenyl)-3-(trifluoromethyl)-1H-pyrazol-5-yl)methoxy)-3,5-difluorophenyl)propanoic acid] | 71% | ≤ 1000 nM |  |
| O=C(O)C(F)(F)Cc1cc(F)c(OCc2cc(C(F)(F)F)nn2-c2ccc(Cl)cc2)c(F)c1 [Example 57, 3-(4-((1-(4-chlorophenyl)-3-(trifluoromethyl)-1H-pyrazol-5-yl)methoxy)-3,5-difluorophenyl)-2,2-difluoropropanoic acid] | 85% | ≤ 1000 nM |  |
| Cc1onc(-c2ccccc2)c1COc1ccc2c(c1)CCC2CC(=O)O (centres unmarked) [Example 58, 2-(5-((5-methyl-3-phenylisoxazol-4-yl)methoxy)-2,3-dihydro-1H-inden-1-yl)acetic acid] | 66% | ≤ 1000 nM |  |
| Cc1cc(COc2ccc3c(c2)CCC3CC(=O)O)n(-c2ccc(Cl)cc2)n1 (centres unmarked) [Example 59, 2-(5-((1-(4-chlorophenyl)-3-methyl-1H-pyrazol-5-yl)methoxy)-2,3-dihydro-1H-inden-1-yl)acetic acid] | 100% | ≤ 1000 nM |  |
| O=C(O)CCc1cc(F)c(OCc2snnc2-c2ccc(Cl)cc2)c(F)c1 [Example 62, 3-(4-((4-(4-chlorophenyl)-1,2,3-thiadiazol-5-yl)methoxy)-3,5-difluorophenyl)propanoic acid] | 88% | ≤ 1000 nM |  |
| O=C(O)C1CC1c1cc(F)c(OCc2snnc2-c2ccccc2)c(F)c1 (centres unmarked) [Example 63, 2-(3,5-difluoro-4-((4-phenyl-1,2,3-thiadiazol-5-yl)methoxy)phenyl)cyclopropane carboxylic acid] | 76% | ≤ 1000 nM |  |
| Cc1cc(COc2c(F)cc(C3CC3C(=O)O)cc2F)n(-c2ccccc2)n1 (centres unmarked) [Example 64, 2-(3,5-difluoro-4-((3-methyl-1-phenyl-1H-pyrazol-5-yl)methoxy)phenyl)cyclopropane carboxylic acid] | 71% | ≤ 1000 nM |  |
| O=C(O)CCc1cc(F)c(OCc2cc(C(F)(F)F)nn2-c2ccccc2)c(F)c1 [Example 65, 3-(3,5-difluoro-4-((1-phenyl-3-(trifluoromethyl)-1H-pyrazol-5-yl)methoxy)phenyl)propanoic acid] | 86% | ≤ 1000 nM |  |

The next lines start with the values.

| % Activity at 5 μM | EC50 (read-out: EC50 ≦ 1 μM) | EC50 (read-out: EC50 between >1 μM and ≦10 μM) | Structure (SMILES) |
| --- | --- | --- | --- |
| 86% | ≤ 1000 nM |  | Cc1cc(COc2c(F)cc(COCC(=O)O)cc2F)n(-c2ccc(Cl)cc2)n1 [Example 35, 2-(4-((1-(4-chlorophenyl)-3-methyl-1H-pyrazol-5-yl)methoxy)-3,5-difluorobenzyloxy)acetic acid] |
| 94% | ≤ 1000 nM |  | Cc1onc(-c2ccccc2)c1COc1c(F)cc(CC(C)C(=O)O)cc1F (centres unmarked) [Example 37, 3-(3,5-difluoro-4-((5-methyl-3-phenylisoxazol-4-yl)methoxy)phenyl)-2-methylpropanoic acid] |
| 100% | ≤ 1000 nM |  | Cc1cc(COc2ccc3c(c2)CCC(CC(=O)O)C3)n(-c2ccc(Cl)cc2)n1 (centres unmarked) [Example 39, 2-(6-((1-(4-chlorophenyl)-3-methyl-1H-pyrazol-5-yl)methoxy)-1,2,3,4-tetrahydronaphthalen-2-yl)acetic acid] |
| 100% | ≤ 1000 nM |  | Cc1onc(-c2ccccc2)c1COc1ccc2c(c1)CCC(CC(=O)O)C2 (centres unmarked) [Example 40, 2-(6-((5-methyl-3-phenylisoxazol-4-yl)methoxy)-1,2,3,4-tetrahydronaphthalen-2-yl)acetic acid] |
| 50% | ≤ 1000 nM |  | Cc1cc(COc2c(F)cc(CCC(=O)O)cc2F)n(C(C)(C)C)n1 [Example 41, 3-(4-((1-tert-butyl-3-methyl-1H-pyrazol-5-yl)methoxy)-3,5-difluorophenyl)propanoic acid] |
| 61% | ≤ 1000 nM |  | Cc1cc(COc2ccc(CCCC(=O)O)cc2)n(-c2ccccc2)n1 [Example 45, 4-(4-((3-methyl-1-phenyl-1H-pyrazol-5-yl)methoxy)phenyl)butanoic acid] |
| 62% | ≤ 1000 nM |  | Cc1cc(COc2c(F)cc(CCC(=O)O)cc2F)n(-c2ccccc2)n1 [Example 46, 3-(3,5-difluoro-4-((3-methyl-1-phenyl-1H-pyrazol-5-yl)methoxy)phenyl)propanoic acid] |
| 71% | ≤ 1000 nM |  | Cc1cc(COc2c(F)cc(CCC(=O)O)cc2F)n(-c2ccc(F)cc2)n1 [Example 47, 3-(3,5-difluoro-4-((1-(4-fluorophenyl)-3-methyl-1H-pyrazol-5-yl)methoxy)phenyl)propanoic acid] |
| 73% | ≤ 1000 nM |  | O=C(O)CCc1cc(F)c(OCc2ccnn2-c2ccccc2)c(F)c1 [Example 48, 3-(3,5-difluoro-4-((1-phenyl-1H-pyrazol-5-yl)methoxy)phenyl)propanoic acid] |
| 71% | ≤ 1000 nM |  | COc1ccc(-n2nc(C)cc2COc2c(F)cc(CCC(=O)O)cc2F)cc1 [Example 49, 3-(3,5-difluoro-4-((1-(4-methoxyphenyl)-3-methyl-1H-pyrazol-5-yl)methoxy)phenyl)propanoic acid] |
| 85% | ≤ 1000 nM |  | Cc1cc(COc2c(F)cc(CCC(=O)O)cc2F)n(-c2ccc(Cl)cc2)n1 [Example 50, 3-(4-((1-(4-chlorophenyl)-3-methyl-1H-pyrazol-5-yl)methoxy)-3,5-difluorophenyl)propanoic acid] |
| 81% | ≤ 1000 nM |  | Cc1cnn(-c2ccc(F)cc2)c1COc1c(F)cc(CCC(=O)O)cc1F [Example 51, 3-(3,5-difluoro-4-((1-(4-fluorophenyl)-4-methyl-1H-pyrazol-5-yl)methoxy)phenyl)propanoic acid] |
| 96% | ≤ 1000 nM |  | O=C(O)C(F)(F)Cc1cc(F)c(OCc2snnc2-c2ccc(Cl)cc2)c(F)c1 [Example 52, 3-(4-((4-(4-chlorophenyl)-1,2,3-thiadiazol-5-yl)methoxy)-3,5-difluorophenyl)-2,2-difluoropropanoic acid] |

Reference: patent US20100216827A1 (Metabolex, Inc., priority 2008, published 2010)
